Data taken from patent US20060063766A1, “Use of aryl- and heteroaryl-substituted tetrahydroisoquinolines to block reuptake of norepinephrine, dopamine, and serotonin” (priority 2004, published 2006).

Columns and labels:
DAT = molecular target: T1, DAT (Homo sapiens, UniProt Q01959); experiment: biochemical; assay type: binding
T1 construct: cDNAs containing the complete coding regions of each transporter were amplified by PCR from human brain libraries; expressed in transfected cells; host or cells: HEK293E
T1 sequence (Q01959 whole entry): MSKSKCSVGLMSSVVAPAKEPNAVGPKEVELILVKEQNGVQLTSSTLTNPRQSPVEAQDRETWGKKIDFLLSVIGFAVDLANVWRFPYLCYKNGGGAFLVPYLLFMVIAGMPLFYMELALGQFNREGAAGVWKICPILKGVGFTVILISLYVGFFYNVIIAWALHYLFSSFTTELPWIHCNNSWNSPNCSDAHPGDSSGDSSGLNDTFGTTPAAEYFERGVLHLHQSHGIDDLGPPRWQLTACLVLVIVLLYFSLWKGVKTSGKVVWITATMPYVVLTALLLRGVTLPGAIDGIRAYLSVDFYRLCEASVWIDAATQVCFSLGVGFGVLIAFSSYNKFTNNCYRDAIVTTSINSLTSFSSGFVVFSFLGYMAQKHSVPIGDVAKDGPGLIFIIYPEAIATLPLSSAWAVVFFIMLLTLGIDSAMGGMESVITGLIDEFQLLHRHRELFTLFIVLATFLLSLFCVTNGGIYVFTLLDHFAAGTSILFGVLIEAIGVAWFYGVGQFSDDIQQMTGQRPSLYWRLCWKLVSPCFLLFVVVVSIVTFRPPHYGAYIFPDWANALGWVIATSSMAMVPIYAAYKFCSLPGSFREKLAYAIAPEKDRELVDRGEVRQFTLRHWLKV

SERT = SERT (Homo sapiens, UniProt P31645); experiment: biochemical
SERT, sequence (P31645 whole entry): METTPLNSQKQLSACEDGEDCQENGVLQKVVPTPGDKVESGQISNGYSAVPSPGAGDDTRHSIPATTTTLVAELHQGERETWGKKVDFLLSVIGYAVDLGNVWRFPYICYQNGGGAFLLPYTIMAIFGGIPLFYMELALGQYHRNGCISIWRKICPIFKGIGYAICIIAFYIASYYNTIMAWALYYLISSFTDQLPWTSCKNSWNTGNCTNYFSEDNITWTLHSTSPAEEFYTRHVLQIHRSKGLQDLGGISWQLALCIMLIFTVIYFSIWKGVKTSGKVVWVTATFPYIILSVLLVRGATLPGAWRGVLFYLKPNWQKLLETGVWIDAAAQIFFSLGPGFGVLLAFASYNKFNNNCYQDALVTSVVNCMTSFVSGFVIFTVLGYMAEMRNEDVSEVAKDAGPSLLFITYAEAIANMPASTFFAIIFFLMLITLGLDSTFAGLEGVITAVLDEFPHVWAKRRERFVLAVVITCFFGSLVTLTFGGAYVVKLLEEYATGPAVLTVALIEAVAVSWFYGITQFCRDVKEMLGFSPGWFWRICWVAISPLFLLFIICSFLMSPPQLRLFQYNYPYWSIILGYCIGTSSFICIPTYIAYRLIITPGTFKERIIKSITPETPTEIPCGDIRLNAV

dopamine transporter = dopamine transporter (Homo sapiens, UniProt Q01959); settings: cited from earlier work
dopamine transporter, sequence (Q01959 whole entry): as the sequence (Q01959 whole entry) above

[1] = tested on: tetrabenazine-induced exploratory loss and ptosis in mice; experiment: Tetrabenazine assay; settings: mouse; result in words
[2] = in a very small number of patients; cited from earlier work

CN1Cc2ccccc2C(c2ccc3sncc3c2)C1.O=C(O)/C=C\C(=O)O (single isomer, unassigned; (+)) [Example 135, (+)-4-benzo[d]isothiazol-5-yl-2-methyl-1,2,3,4-tetrahydroisoquinoline, maleate salt]
melting point: 145 to 147 °C
Ki (DAT): 79.4 nM
Ki (SERT): 10.4 nM

CNCC[C@@H](Oc1ccccc1C)c1ccccc1 [atomoxetine]
activity at the dopamine transporter (dopamine transporter): little or no activity

COC(=O)C(c1ccccc1)C1CCCCN1 (stereo not shown) [Ritalin]
biological activity in the tetrabenazine in vivo assay [1]: potent activity

CN1Cc2c(N)cccc2C(c2ccccc2)C1 (stereo not shown) [Nomifensine®]
serious side effect of long term administration [2]: fatal immune hemolytic anemia

CN1Cc2c(N)cccc2C(c2ccccc2)C1 (stereo not shown) [Nomifensine]
biological activity in the tetrabenazine in vivo assay [1]: potent biological activity
